This note sets out measurements from ChEMBL document CHEMBL1201862, “PubChem BioAssay data set” (2004).

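Compound exposure: 48 hours, 5 concentrations, 96-well plates. At the GI50, growth is halved.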 The source made the active and inactive calls. Cut-off read from the data, not from the text of the source: active = GI50 up to about 1.1 µM and inactive = higher. Bounds are passed on as bounds.

Among the test systems are UO-31; K562; SN12C; RPMI-8226; SK-MEL-2; OVCAR-5; MCF7; SK-MEL-28; HCT-116; SK-OV-3; CCRF-CEM; NCI-H460; HL-60; KM12; HOP-62; CAKI-1; SF-268; TK-10; U-251; OVCAR-3.
What all share (experiment): NCI anticancer screen, dose series, 48 h

As to `CC1(C)C=[N+]([O-])C(C)(C)N1`, the GI50 with UO-31, in the experiment with K562, with SN12C, in the experiment with RPMI-8226, in the experiment on SK-MEL-2 and in the experiment with OVCAR-5 was > 100 µM (inactive) in each case. In addition, the GI50 with MCF7, in the experiment on SK-MEL-28, in the experiment with HCT-116, with SK-OV-3, with CCRF-CEM and in the experiment with NCI-H460 was > 100 µM (inactive) each time. Besides, the GI50 in the experiment on HL-60, in the experiment on KM12, in the experiment with HOP-62, in the experiment with CAKI-1, with SF-268 and with TK-10 was > 100 µM (inactive) each time. Besides, the GI50 with U-251 and in the experiment on OVCAR-3 was > 100 µM (inactive) each time.

With `COc1ccccc1/C(=N\OCCC(=O)O)c1cccs1`, the GI50 with UO-31, in the experiment with K562, in the experiment with SN12C, in the experiment with RPMI-8226, in the experiment on SK-MEL-2 and with OVCAR-5 was > 100 µM (inactive) in each case. Moreover, the GI50 in the experiment on MCF7, in the experiment with SK-MEL-28, in the experiment with HCT-116, in the experiment with SK-OV-3, in the experiment with CCRF-CEM and in the experiment on NCI-H460 was > 100 µM (inactive) in each case. Moreover, the GI50 in the experiment with HL-60, with KM12, in the experiment with HOP-62, with CAKI-1, with SF-268 and in the experiment on TK-10 was > 100 µM (inactive) in each case. Besides, the GI50 in the experiment on U-251 and in the experiment with OVCAR-3 was > 100 µM (inactive) in each case.

On to `Cc1cccc2c(N)c3cccc(C(=O)NCC[N+](C)(C)[O-])c3nc12`, for which the GI50 in the experiment with UO-31 is 21.7 µM (inactive); in the experiment on K562, 3.13 µM (inactive); with SN12C, 3.64 µM (inactive); in the experiment with RPMI-8226 it was 9.44 µM (inactive); in the experiment with SK-MEL-2 it was 67.5 µM (inactive); in the experiment on OVCAR-5, 5.32 µM (inactive). Further, the GI50 in the experiment with MCF7 is 2.1 µM (inactive); with SK-MEL-28 it was 17.3 µM (inactive); in the experiment on HCT-116 it was 13.2 µM (inactive); in the experiment with SK-OV-3 it was 14 µM (inactive); in the experiment with CCRF-CEM it was 2.49 µM (inactive); with NCI-H460, 0.538 µM (active). In addition, the GI50 with HL-60 was 4.05 µM (inactive); in the experiment with KM12, > 100 µM (inactive); in the experiment on HOP-62, 3.61 µM (inactive); in the experiment on CAKI-1 it was 3.42 µM (inactive); with SF-268, 1.96 µM (inactive); in the experiment on TK-10, 21.8 µM (inactive). Also, the GI50 in the experiment with U-251 is 4 µM (inactive); in the experiment on OVCAR-3, 16.1 µM (inactive).

As for `CCOC(=O)CC[C@@H](NC(=O)c1ccc(NCc2ccc3nc(OC)c(OC)nc3c2)cc1)C(=O)OCC`, the GI50 was 26.5 µM (inactive) in the experiment on UO-31; 46.8 µM (inactive) with K562; 52 µM (inactive) in the experiment on SN12C; > 94.8 µM (inactive) with RPMI-8226; 18.1 µM (inactive) in the experiment with SK-MEL-2; > 100 µM (inactive) with OVCAR-5. The GI50 with MCF7 was 25.5 µM (inactive); in the experiment with SK-MEL-28 it was 16.1 µM (inactive); in the experiment on HCT-116, > 100 µM (inactive); in the experiment with SK-OV-3 it was > 100 µM (inactive); in the experiment with CCRF-CEM, 32.6 µM (inactive); with NCI-H460, 20.6 µM (inactive). The GI50 in the experiment on HL-60 is 14.8 µM (inactive); with KM12 it was > 100 µM (inactive); in the experiment on HOP-62, > 77.4 µM (inactive); with CAKI-1, > 83.9 µM (inactive); in the experiment with SF-268, 33.4 µM (inactive); with TK-10, 60.5 µM (inactive). Further, the results for the GI50 in the experiment with U-251 and with OVCAR-3 were > 100 µM (inactive) and 17.3 µM (inactive), respectively.

Take `CC(=O)c1cccc2c1CC1(C2)Cc2ccc3c(c2C1=O)CCC3` (stereo not given): the GI50 in the experiment with UO-31 was 30.3 µM (inactive); in the experiment on K562, 21.6 µM (inactive); with SN12C, 35.8 µM (inactive); in the experiment with RPMI-8226 it was 17.3 µM (inactive); with SK-MEL-2, 26.2 µM (inactive); in the experiment with OVCAR-5, 53.6 µM (inactive). For the same compound, the GI50 in the experiment with MCF7 is 9.57 µM (inactive); in the experiment with SK-MEL-28 it was 42.1 µM (inactive); in the experiment on HCT-116 it was 27.7 µM (inactive); in the experiment on SK-OV-3 it was 83.6 µM (inactive); with CCRF-CEM, 34.8 µM (inactive); in the experiment with NCI-H460 it was 33.3 µM (inactive). Further, the GI50 with HL-60 was 3.64 µM (inactive); in the experiment with KM12, 29.6 µM (inactive); with HOP-62 it was 54 µM (inactive); in the experiment with CAKI-1, 48 µM (inactive); in the experiment on SF-268 it was 40.7 µM (inactive); in the experiment with TK-10, 24.2 µM (inactive). The results for the GI50 with U-251 and in the experiment with OVCAR-3 were 47.1 µM (inactive) and 23.5 µM (inactive), respectively.

For `O=[N+]([O-])c1cccc2nc3ccccc3c(NCCC[N+]3([O-])CCOCC3)c12`, the GI50 is 1.67 µM (inactive) in the experiment with UO-31; 0.223 µM (active) in the experiment with K562; 0.171 µM (active) in the experiment with SN12C; 0.193 µM (active) in the experiment on RPMI-8226; 0.175 µM (active) in the experiment with SK-MEL-2; 0.327 µM (active) with OVCAR-5. Besides, the GI50 in the experiment with MCF7 is 0.0548 µM (active); with SK-MEL-28 it was 0.29 µM (active); in the experiment with HCT-116, 0.0948 µM (active); in the experiment on SK-OV-3, 0.281 µM (active); in the experiment with CCRF-CEM, 0.0933 µM (active); in the experiment with NCI-H460 it was 0.0942 µM (active). The GI50 in the experiment on HL-60 was 0.245 µM (active); in the experiment with KM12, 0.187 µM (active); in the experiment with HOP-62 it was 0.119 µM (active); in the experiment with CAKI-1, 2.65 µM (inactive); in the experiment on SF-268 it was 0.164 µM (active); in the experiment on TK-10, 0.697 µM (active). Besides, the GI50 in the experiment on U-251 was 0.209 µM (active); in the experiment on OVCAR-3, 0.17 µM (active).

Regarding `CC1CNC(c2ccc(COc3ccc(C4=NC(C)CN4)cc3)cc2)=N1` (stereo not given), the GI50 in the experiment with UO-31 is > 100 µM (inactive); in the experiment on K562 it was 15.5 µM (inactive); in the experiment with SN12C, 17.6 µM (inactive); in the experiment on RPMI-8226, 29.9 µM (inactive); with SK-MEL-2 it was 18.6 µM (inactive); in the experiment with OVCAR-5, > 100 µM (inactive). The GI50 in the experiment on MCF7 was 18.3 µM (inactive); in the experiment with SK-MEL-28, 41.8 µM (inactive); in the experiment on HCT-116, 39.1 µM (inactive); in the experiment with SK-OV-3, 73.1 µM (inactive); with CCRF-CEM, 59.6 µM (inactive); with NCI-H460 it was 23.4 µM (inactive). Also, the GI50 in the experiment with HL-60 was > 100 µM (inactive); in the experiment with KM12, 27.4 µM (inactive); in the experiment with HOP-62 it was 32.8 µM (inactive); in the experiment on CAKI-1, > 100 µM (inactive); in the experiment with SF-268 it was 54.3 µM (inactive); in the experiment on TK-10 it was 65.9 µM (inactive). Further, the GI50 in the experiment on U-251 was 28.5 µM (inactive); in the experiment on OVCAR-3 it was 34.9 µM (inactive).

Turning to `CCCCCC(/C=C/C1CCC(=O)C1)OCOCCOC` (stereo not given), the GI50 with UO-31 was 17.9 µM (inactive); in the experiment on K562, 25.8 µM (inactive); with SN12C it was 57.5 µM (inactive); in the experiment with RPMI-8226, 21.6 µM (inactive); with SK-MEL-2, 64.6 µM (inactive); in the experiment with OVCAR-5 it was > 100 µM (inactive). Besides, the GI50 is 33.5 µM (inactive) in the experiment with MCF7; > 77.3 µM (inactive) in the experiment on SK-MEL-28; 27 µM (inactive) with HCT-116; > 100 µM (inactive) with SK-OV-3; 35.3 µM (inactive) with CCRF-CEM; 67.9 µM (inactive) in the experiment on NCI-H460. Moreover, the GI50 with HL-60 was 42.1 µM (inactive); in the experiment with KM12, 45.9 µM (inactive); with HOP-62 it was > 100 µM (inactive); with CAKI-1, 31.5 µM (inactive); in the experiment with SF-268, 29.3 µM (inactive); in the experiment with TK-10, 37.2 µM (inactive). Moreover, the GI50 with U-251 is 38.1 µM (inactive); in the experiment on OVCAR-3, 41.4 µM (inactive).

Take `C=C1CCC(CC[C@@H]2CC[C@]3(OC2)O[C@@]2(O)CC[C@]3(C)OC2(C)C)C(C)(C)[C@H]1C/C=C1/C(=O)OC[C@@H]1O` (stereo not given in full): the GI50 is 4.91 µM (inactive) with UO-31; 0.141 µM (active) in the experiment on K562; 2.36 µM (inactive) in the experiment with SN12C; 1.62 µM (inactive) in the experiment with RPMI-8226; 0.524 µM (active) in the experiment with SK-MEL-2; 2.5 µM (inactive) in the experiment with OVCAR-5. Moreover, the GI50 in the experiment with MCF7 is 1.11 µM (active); in the experiment on SK-MEL-28, 1.59 µM (inactive); in the experiment on HCT-116, 0.71 µM (active); with SK-OV-3, 4.85 µM (inactive); in the experiment on CCRF-CEM, 1.06 µM (active); in the experiment with NCI-H460 it was 3.04 µM (inactive). In addition, the GI50 in the experiment with HL-60 was 0.685 µM (active); in the experiment on KM12 it was 2.34 µM (inactive); in the experiment with HOP-62, 6.1 µM (inactive); with CAKI-1, 5 µM (inactive); with SF-268, 3.01 µM (inactive); in the experiment with TK-10, 6.12 µM (inactive). Also, the GI50 with U-251 is 2 µM (inactive); in the experiment on OVCAR-3, 2.57 µM (inactive).

Take `O=CN1CCN(C(=O)c2ccco2)C1=S`: the GI50 with UO-31 was 4.49 µM (inactive); in the experiment on K562, 3.25 µM (inactive); with SN12C, 4.01 µM (inactive); in the experiment with RPMI-8226, 2.24 µM (inactive); with SK-MEL-2, 17.2 µM (inactive); in the experiment on OVCAR-5, 19.4 µM (inactive). Besides, the GI50 in the experiment with MCF7 was 2.7 µM (inactive); in the experiment with SK-MEL-28, 15.9 µM (inactive); in the experiment on HCT-116 it was 12.2 µM (inactive); in the experiment with SK-OV-3 it was 24.3 µM (inactive); in the experiment with CCRF-CEM it was 3.7 µM (inactive); in the experiment on NCI-H460, 12.4 µM (inactive). For the same compound, the GI50 in the experiment on HL-60 is 3.46 µM (inactive); in the experiment with KM12, 6.18 µM (inactive); in the experiment with HOP-62 it was 13.2 µM (inactive); with CAKI-1 it was 5.38 µM (inactive); with SF-268, 7.05 µM (inactive); in the experiment with TK-10 it was 14.3 µM (inactive). Moreover, the GI50 in the experiment on U-251 was 13.9 µM (inactive); in the experiment with OVCAR-3, 4.39 µM (inactive).
